Where “and” joins values, the source holds several entries; their conditions need not be identical. Equal entries are not always repeated.
melting point: 139 °C and 139 to 140 °C
SMILES: COc1cc(OC)c(NC(=O)c2ccc(Cc3cc4c(cc3C)[Si](C)(C)CC[Si]4(C)C)o2)c(OC)c1

— patent US20060052344A1, “Heterocyclic silicon compounds and their use in the treatment of diseases or conditions associated with gnrh (gonadotropin-releasing hormone)” (priority 2002, published 2006)
